{
  "source": "patent US20180368393A1",
  "about": "“PRE- AND POST-STORAGE STRESS RESPONSE CONDITIONING” (CPSI HOLDINGS LLC, priority 2017, published 2018)",
  "tested_on": "human endothelial cells",
  "experiment": "Human endothelial cell monolayer survival and repopulation following cryopreservation (Calcein-AM assay)",
  "type": "cell-based",
  "protocol": "A series of cryopreservation experiments was conducted on human endothelial and smooth muscle cell suspensions and monolayers to assess the performance of four (4) commercially available cryopreservation solutions: DP6, VS55, VS83, and M22, as well as nine (9) additional solutions: […] Eurocollins (EC) solution was included as a negative control, i.e., no cryoprotective agent (CPA) control, while media+10% DMSO ([…]) is a typical solution (10% DMSO) used in standard controlled rate cryopreservation protocols known to the skilled individual. Unisol is representative of the class of intracellular-like or intracellular-type solutions/media, whereas EC solution and culture media are representative of the class of extracellular-like or extracellular-type solutions/media. Other studies presented herein provide additional examples of intracellular- and extracellular-like solutions; other intracellular- and extracellular-like solutions are similarly useful and are known to those of skill in the art. FIG. 1 illustrates the results of an assessment of human endothelial cell survival following preservation. Monolayers of endothelial cells were frozen or vitrified and thawed in the indicated solutions (control, Uni, […], DP6, VS55, VS83, and […]). Following thawing, samples were diluted in culture media, placed into culture and assessed for viability at 1 day (24 hours) post-thaw and following seven (7) days of recovery using the Calcein-AM assay. […] The Uni and U10 conditions provided outcomes exceeding that of the VS55, VS83 and […] conditions. Therefore, subsequent studies (see, e.g., FIG. 2) focused on Unisol-based solutions with various CPAs and concentrations, in addition to the DP6 commercial cryopreservation solution. […] Monolayers of endothelial cells were frozen or vitrified and thawed in the indicated solutions. […] For pre-freeze (PF), post-warming (PW) and pre/post (P/P) conditioning studies, molecular modulation agents targeting inhibition of apoptosis (Caspase inhibitor IV, 8, 9 and a combination of Caspases 8 and 9), reduction of free-radical damage (resveratrol and NAC), and activation of the unfolded protein response (salubrinal) were employed as supplements in the media 1 hour prior to freezing (pre-freeze condition) or for 1 day following thawing and CPA removal from frozen samples (post-warming condition). Based on outcomes in the studies in Example 1, PF, PW and P/P conditioning were examined in Examples 2-3 using a series of Unisol-based solutions (Uni, U5, U10, U20, UG10, U5G10 and U10G10). […] Patent Application Publication No. US 2016/0097583 A1 (Ser. No. 14/876,087), which is incorporated by reference in its entirety as though fully set forth herein. The freeze and thaw process was slightly modified relative to the disclosure of U.S. Patent Application Publication No. US 2016/0097583 A1 by the addition of a 0.090 inch aluminum plate inserted into the bottom of the 96 well plate to aid in increasing cooling and heating uniformity throughout the plate, thereby reducing the well-to-well variability within the samples. The device was used to thaw the samples, which were frozen in situ in monolayers in standard 96-well tissue culture plates. […] A mitochondrial-mediated apoptotic inhibitor (Caspase 9) and a membrane-mediated apoptotic inhibitor (Caspase 8) were investigated to evaluate the involvement and impact of modulation of various apoptotic induction pathways. Additionally, a pan-Caspase inhibitor (Cas IV) was also investigated to assess the impact of global pathway modulation. As with the viability studies, cell survival and repopulation were assessed using Calcein-AM assays and analyzed using fluorescent microscopy (Zeiss). Survival was determined at 24 hours post-thaw to allow for the manifestation of any delayed onset cell death pathways to be executed. Further, cell recovery was included to evaluate the long term potency and repopulation potential of the various samples. […]",
  "data": [
    {"smiles": "CC(=O)N[C@@H](CS)C(=O)O", "note": "[NAC, n-acetyl cysteine]", "values": [
      {"measurement": "survival", "setting": "P/P conditioning with NAC, salubrinal or resveratrol, U10G10", "value": "~60", "unit": "%"},
      {"measurement": "post-thaw viability", "setting": "P/P conditioning, U10 and U5G10 CP solutions vs matched non-treated samples", "value": "increase in post-thaw viability"},
      {"measurement": "day 1 survival increase over non-treated samples", "setting": "P/P oxidative stress modulator conditioning, U10G10", "value": "~2.5", "unit": "fold"},
      {"measurement": "day 1 survival increase over non-treated samples", "setting": "PF conditioning 1 hour, U10G10", "value": "~2", "unit": "fold"},
      {"measurement": "day 1 survival increase over non-treated samples", "setting": "PW conditioning 24 hours, U10G10", "value": "~2", "unit": "fold"},
      {"measurement": "post-thaw cell survival or recovery (overall)", "setting": "PW conditioning in combination with various solutions", "value": "Broader solution benefit"},
      {"measurement": "cell recovery / repopulation, 3 days", "setting": "PW conditioning with oxidative stress modulators, vs non-treated", "value": "improved cell recovery"},
      {"measurement": "increase in survival", "setting": "PW conditioning, U10 and U10G10 solutions, day 1", "value": "~50", "unit": "%"}
    ]}
  ]
}
